Laboratory results from patent US20250120988A1, “SMALL MOLECULE COMPOUND FOR TREATING ISCHEMIC STROKE, ITS PREPARATION METHOD, AND APPLICATION” (SHANGHAI SIXTH PEOPLE'S HOSPITAL, priority 2023, published 2025).

Experiments:
[1] = tested on: primary cortical neurons; experiment: LDH release from cultured neurons after OGD; type: cell-based, mice; conditions: 10 μM, OGD 1 hour, pH 7.0
Description: Figure a illustrates cortical neurons staining from wild-type (ASIC1a+/+) and gene-deficient (ASIC1a−/−) mice primary cultures in the calcein-PI staining experiment. Blue green represents viable cells, and red represents dead cell nuclei. 10 μM CGS19755 and 10 μM LK-2 were added respectively in the cell culture medium under pH 7.0 conditions with OGD to be treated for 1 hour. Figure c illustrates, after being treated in the same experimental groups as Figure a, the analysis of each group of LDH of relative release levels. Figure d illustrates PI staining of ASIC1a-transfected CHO cells after 1 hour of treatment with pH 7.0 and 500 μM glutamate (Glu). Green represents green fluorescent protein (GFP), indicating ASIC1a-expressing CHO cells (GFP+), and red represents dead cell nuclei. The concentration of LK-2 was 10 μM. GFP-indicates ASIC1a-untransfected cells. […]
The LDH assay kit (Biyuntian) was used to measure the release of LDH from cultured neurons after 1 hour of oxygen-glucose deprivation (OGD). […] The absorbance of the target was measured at 490 nm wavelength using a spectrophotometer (Thermo Scientific), while the background absorbance was measured at 620 nm wavelength. […]

[2] = tested on: MCAO model; experiment: MCAO cerebral ischemia model, rotarod motor function test; type: in vivo, mice; conditions: 30 mg/kg, seven days after brain injury
Description: Figure a illustrates the experimental process, where drug intervention (using a concentration of 30 mg/kg of LK-2) was conducted 30 minutes after modeling, and the first brain function test (rotarod test) was performed 24 hours after modeling. The second brain function test was conducted 7 days later, with 5 training tests followed by 1 formal test in each rotarod test. Figure b illustrates the time taken for mice to fall off the rotarod during the 5 training tests, where longer time indicates better motor function. […] Figure c illustrates the analysis results of motor ability in the formal test conducted 24 hours and 7 days after modeling for each group of mice. • 3.4 The animal model of cerebral ischemic stroke, known as the middle cerebral artery occlusion (MCAO) model, is a classic model used to simulate individual patients with ischemic stroke, and evaluate the size of cerebral infarction and motor function (evaluate through the rotarod test, including assessment of motor learning and coordination, the experimental design process is illustrated in FIG. 8a) in model animals after drug intervention. The specific steps are as follows: a transient focal ischemic model was formed by occluding the middle cerebral artery for 30 minutes in wild-type or ASIC1a gene knockout mice. […] In this test, mice were placed on the rotating rod and the time to fall was recorded. […]

O=C(O)C1CN(C(c2ccccc2)P(=O)(O)O)CCN1 (stereo not drawn) [LK-2]
reduction of lactate dehydrogenase release [1]: 50%
motor learning ability ([2]; rotarod training tests): significant improvement
overall improvement in motor function ([2]; rotarod): 51.6%
